{"source": "patent US20100317577A1", "about": "“Methods and Compositions for Inhibiting Cell Death or Enhacing Cell Proliferation” (Department of Health and Human Services, priority 2005, published 2010)", "key": {"[1]": {"tested_on": "Peripheral blood mononuclear cell (PBMC)", "type": "cell-based, human"}, "caspase 3/7 [2]": {"tested_on": "caspase 3/7", "assay": "Caspase 3/7 activity in HL-60 cells with staurosporine", "type": "cell-based, human", "conditions": "HL-60, staurosporine"}, "HL-60 cells": {"tested_on": "HL-60 cells", "conditions": "for effect on staurosporine cytotoxicity (cell number): chimera at forty-eight hours"}, "caspase 3/7 [3]": {"tested_on": "caspase 3/7", "assay": "Caspase 3/7 activity in monocytes treated with cytotoxic drugs", "type": "cell-based, human"}, "[4]": {"assay": "Protease sensitivity during expression in Pichia pastoris", "conditions": "high concentrations of protease inhibitors", "protocol": "In Pichia, GM-CSF-Bcl-XL was expressed intracellularly. The expression was monitored by Western blot.\nThe cells were harvested by centrifugation at 5,000 g, and, washed with binding buffer (5 mM imidazole, 20 mM Tris/Cl pH 7.9, 0.5M NaCl) containing 2 protease inhibitor tablets, COMPLETE PROTEASE INHIBITOR COCKTAIL EDTA-free (Roche Diagnostics, Indianapolis, Ind.),/50 ml of buffer. Cells were lysed by adding 100 g of acid washed glass beads (0.5 g of beads/ml of initial culture) with 1 cycle of 5 minutes, frequency 30 Hz, in a mixer mill (Retsch MM200, Haan, Del.). The cellular debris were eliminated by centrifugation at 18,000 g, 5 minutes at 4° C."}}, "data": [{"molecule": "Nc1ccn([C@@H]2O[C@H](CO)[C@@H](O)[C@@H]2O)c(=O)n1", "note": "[cytarabine, reference compound]", "values": [{"measurement": "effect on growth of CFU-GM and BFU-E colonies", "setting": "CD34^+ cells", "value": "drastically impaired"}]}, {"molecule": "GM-CSF: human granulocyte-macrophage colony-stimulating factor, a cytokine", "values": [{"measurement": "prosurvival activity in the presence of AG 490", "setting": "[1]", "value": "completely inhibited"}, {"measurement": "prosurvival activity in the presence of staurosporine", "setting": "[1]", "value": "largely inhibited"}, {"measurement": "effect on caspase activity / apoptosis", "setting": "caspase 3/7 [2]", "value": "reduced"}, {"measurement": "effect on staurosporine cytotoxicity (cell number)", "setting": "HL-60 cells; HL-60, staurosporine", "value": "not able to block the cytotoxic effect of staurosporine"}]}, {"molecule": "GM-CSF-Bcl-XL: chimeric protein: human GM-CSF fused via glycine-serine-threonine linker to full length human Bcl-XL, N-terminal His tag, expressed in E. coli (SEQ ID NO:1)", "values": [{"measurement": "protection of PBMC from kinase inhibitors / apoptosis", "setting": "[1]", "value": "protected PBMC from both kinase inhibitors in a dose dependent manner"}, {"measurement": "increase in cell viability in the presence of AG409", "setting": "[1]; 0.24 µM", "value": 30, "unit": "%"}, {"measurement": "increase in cell viability in the presence of staurosporine", "setting": "[1]; 0.24 µM", "value": 50, "unit": "%"}, {"measurement": "inhibition of caspase 3/7 activity compared with GM-CSF at the same concentration", "setting": "caspase 3/7 [3]", "value": "more effective"}, {"measurement": "reduction of caspase activity", "setting": "caspase 3/7 [3]; monocytes, 2.4 μM, cytotoxic drugs", "value": "more than 50%"}, {"measurement": "time of maximum effect on proliferation", "setting": "HL-60 cells; HL-60", "value": 48, "unit": "h"}, {"measurement": "proliferation activity higher than in cells treated with the same molar amount of GM-CSF", "setting": "HL-60 cells; HL-60, 48 hours", "value": 30, "unit": "%"}, {"measurement": "duration of protection from staurosporine", "setting": "HL-60 cells; HL-60, staurosporine", "value": "at least seventy-two hours"}, {"measurement": "effect on staurosporine cytotoxicity (cell number)", "setting": "HL-60 cells; HL-60, staurosporine", "value": "approximately the same number of cells as control cultures without staurosporine"}, {"measurement": "reduction in cell death", "setting": "HL-60 cells; HL-60, with staurosporine, seventy-two hours, versus control", "value": 30, "unit": "%"}, {"measurement": "cells that had died", "setting": "HL-60 cells; HL-60, with staurosporine, seventy-two hours, 50% of control cells had died", "value": 20, "unit": "%"}, {"measurement": "protection of colonies in the presence of cytarabine", "setting": "CD34^+ cells; CD34+ cells, cytarabine", "value": "selectively protected the CFU-GM colonies relative to BFU-E"}, {"measurement": "colonies under cytokine deprivation", "setting": "CD34^+ cells; CD34+ cells, essential medium, no growth factor/cytokines", "value": "protected myeloid precursors from cytokine deprivation"}, {"measurement": "effect on number of colonies", "setting": "CD34^+ cells; CD34+ cells, supplemented medium (SCF, erythropoietin, cytokines)", "value": "two-fold"}, {"measurement": "sensitivity to proteolysis", "setting": "[4]", "value": "very sensitive to proteolysis"}]}, {"molecule": "CN[C@@H]1C[C@H]2O[C@@](C)([C@@H]1OC)n1c3ccccc3c3c4c(c5c6ccccc6n2c5c31)C(=O)NC4", "note": "[staurosporine, reference compound]", "values": [{"measurement": "effect on caspase activity / apoptosis", "setting": "caspase 3/7 [2]", "value": "induced apoptosis at the highest levels"}]}]}
